# Reference: patent US20230293530A1, “AGENTS FOR SENSITIZING SOLID TUMORS TO TREATMENT” (Yeda Research and Development Co. Ltd., priority 2020, published 2023)
# What was measured:
# [1] = system: 4T1 cells; experiment: Cell viability by crystal violet staining, 4T1; format: cell-based, murine; settings: 300 µM mizoribine, 24 h
# Method: A) Purine/pyrimidine ratio is increased upon nutrient deprivation in […] colon cancer cells. MC38 cells were grown in either regular medium or in medium without glucose for 24 h. Nucleotide levels were measured by LC-MS. Purine/pyrimidine ratio was calculated by dividing (AMP+GMP) AUC by (UMP+CMP) AUC. B) 4T1 cells with and without shASS1 were grown in glucose free medium either supplemented or not with 10 mM L-Name for 48 hrs. Nucleotide levels were measured by LC-MS. Purine/pyrimidine ratio was calculated by dividing the sum levels of (AMP+GMP) by the sum levels of (UMP+CMP+TMP). […] MC38 cells were grown either with or without 300 µM mizoribine for 24 h. Nucleotide levels were measured by LC-MS. […] 4T1 (left panel) and MC38 cells (right panel) were grown for 24 h with or without 300 µM mizoribine. Cell viability was measured by crystal violet staining. Each experiment was conducted with biological and technical replicates and repeated at least three times. All error bars represent SER. * P<0.05, ** denotes P<0.01, ***P<0.001.
# [2] = system: NSCLC PDX explants with autologous CD8+ T cells; experiment: Co-culture of NSCLC PDX tumor explants with autologous CD8+ T cells, IFNγ ELISA; format: cell-based, human
# Description: Two patients bearing metastatic non-small cell lung cancer (NSCLC) were included in this study. Blood samples and fresh tumor tissue samples were procured just after their biopsy with patient consent and with Helsinki approval (number 0093-19-SOR). The samples were placed in serum free DMEM (Gibco) media then processed for implantation in NSG (NOD scid gamma) mice. Tumor tissue samples were implanted subcutaneously in dorsal flanks of the mice to form patient-derived xenografts (PDXs). All animal experiments were done under Institutional Animal Care and Use Committee (IACUC) of Ben-Gurion University of the Negev (BGU’s IACUC) according to specified protocols aiming to ensure animal welfare and reduce su □ ering. The Animal ethical clearance protocol number used for this research is IL-80-12-2015. After isolation of peripheral blood mononuclear cells (PBMCs) from the peripheral blood of the patients according to standard protocol using Lymphocyte Separation Medium (LSM, MP Biomedicals, SKU 0850494-CF), CD8^+ T cells were isolated from PBMCs by employing human CD8 Microbeads (Miltenyi Biotec, 130-045-201), LS column (Miltenyi Biotec, 130-042-401) and MidiMACS Separator (130-042-302) following manufacturer’s protocol. For culturing and maintenance of CD8 T cells, RPMI containing 10% human male AB plasma (Sigma, H4522), 1 mM sodium pyruvate, 2 mM L-glutamine, 0.1 mM MEM non-essential amino acids, 1% penicillin/streptomycin, 10 mM HEPES (Life Technologies), 200 IU/mL recombinant human IL-2 (PeproTech) and 50 ng/mL anti-human CD3 Antibody (BioLegend, 317302) were used for the first 48 hrs followed by culturing and passaging in media containing 200 IU/mL of IL-2.
# 2×2×2 mm^3 tumor tissue explants were cut from PDXs with a specific tissue cutter and seeded singly in 48 well flat-bottom plates and incubated with either mizoribine (0.3 mM) in 400 µl of media or with only media for 10 hrs. Then, explants were washed once and transferred into new 48 well flat-bottom plates containing 2×10^5 CD8+T cells/well along with nivolumab (Opdivo, 20 µg/mL), pembrolizumab (Keytruda, 20 µg/mL) or mock solventin fresh 400 µl RPMI containing 20 IU/ml ofIL-2. After 18 hours of incubation, the supernatant was collected from the wells and then assayed for standard IFNγ ELISA assay (ELISA MAX, Biolegend) according to manufacturer’s instructions.
# Two patients bearing metastatic non-small cell lung cancer (NSCLC) were included in this study. Blood samples and fresh tumor tissue samples were procured just after their biopsy with patient consent and with Helsinki approval (number 0093-19-SOR). The samples were placed in serum free DMEM (Gibco) media then processed for implantation in NSG (NOD scid gamma) mice (NOD.Cg-Prkdcscid Il2rgtm1Wjl, The Jackson Laboratory). Tumor tissue samples were implanted subcutaneously in dorsal flanks of the 7-9 weeks old male mice to form patient-derived xenografts (PDXs).
# After isolation of peripheral blood mononuclear cells (PBMCs) from the peripheral blood of the patients according to standard protocol using Lymphocyte Separation Medium (LSM, MP Biomedicals, SKU 0850494-CF), CD8^+ T cells were isolated from PBMCs by employing human CD8 Microbeads (Miltenyi Biotec, 130-045-201), LS column (Miltenyi Biotec, 130-042-401) and MidiMACS Separator (130-042-302) following manufacturer’s protocol. For culturing and maintenance of CD8 T cells, RPMI containing 10% human male AB plasma (Sigma, H4522), 1 mM sodium pyruvate, 2 mM L-glutamine, 0.1 mM MEM non-essential amino acids, 1% penicillin/streptomycin, 10 mM HEPES (Life Technologies), 200 IU/mL recombinant human IL-2 (PeproTech) and 50 ng/mL anti-human CD3 Antibody (BioLegend, 317302) were used for the first 48 hrs followed by culturing and passaging in media containing 200 IU/mL of IL-2.
# PDXs from patients with lung cancer non responsive to anti-PD1 were exposed to no treatment, to mizoribine, or to either EDHB (left panel) or Viagra (right panel). […]
smiles,measurement,setting,value
"NC(=O)c1ncn([C@@H]2O[C@H](CO)[C@@H](O)[C@H]2O)c1O [Mizoribine, mizoribine]","cancer cell proliferation (cell viability, crystal violet)",[1],restricts ASS1-overexpressing cancer cell proliferation
same,"human IFNγ in supernatant, explant alone","[2]; PDX explant alone treated with mizoribine 0.3 mM, no T cells",did not detect human IFNγ
same,"IFNγ secretion by autologous CD8+ T cells, anti-PD1 plus mizoribine-treated explants","[2]; explants pre-treated with mizoribine 0.3 mM 10 hrs, nivolumab or pembrolizumab 20 µg/mL, 18 hours",significant elevation in secretion of IFN-γ
same,"human IFNγ levels, explant plus autologous CD8+ T cells, no anti-PD1",[2]; mizoribine-treated explants with autologous CD8+T cells,did not induce detectable IFNγ levels
